Measured values from patent US20250099512A1, “USE OF BACTEROIDES FRAGILIS IN IMPROVEMENT AND TREATMENT OF DIARRHEA” (priority 2022, published 2025).
Counter-ions that a name gives are not always drawn.

Legend:
[1] = tested on: mice with Escherichia coli-induced diarrhea; experiment: Effect on mice with Escherichia coli-induced diarrhea (Example 6); type: in vivo; settings: positive control, berberine hydrochloride 0.01 g/mL i.g. QD*7 days; Escherichia coli i.p. model
Description: Escherichia coli preserved on a slant was inoculated on a nutrient agar plate and cultured at 37° C. for 24 h. Several colonies were then picked, inoculated into MH broth, followed by another 24 hours of culture at 37° C. The culture was then diluted with sterilized normal saline and subjected to turbidity adjustment using a 0.5 Mcfarland turbidimetric tube, thus achieving a bacterial content of 3×10^8 CFU/mL.
Mice weighing about 20 g were selected, and each mouse was intraperitoneally injected with 0.2 mL of the Escherichia coli bacteria solution with a bacterial content of 3×10^8 CFU/mL for diarrhea induction. A positive control group received a 0.01 g/mL aqueous berberine hydrochloride solution administered intragastrically. The experimental grouping and procedures were the same as in Example 3. The mice were continuously observed for 5 h, and the diarrhea indices of the mice were recorded.

[2] = tested on: Cryptosporidium cuniculus; experiment: Effect on diarrhea in rabbits infected with Cryptosporidium cuniculus, oocysts in stools (Example 12); type: in vivo, New Zealand white rabbits
Excerpt: A parasite-associated diarrhea model was constructed by intragastric administration of Cryptosporidium cuniculus oocysts (extracted from a single positive stool sample from a rabbit farm in Jilin) in New Zealand white rabbits. Subsequently, the Bacteroides fragilis live bacteria solution, inactivated bacteria powder and lysate solution (prepared in Example 2) were each used for treatment. The therapeutic effects of the Bacteroides fragilis live bacteria solution, inactivated bacteria powder and lysate solution were observed.
New Zealand white rabbits aged 35 days were selected and randomly divided into the following 6 groups: a blank group (group 1), a model group (group 2), a positive control group (nitazoxanide) (group 3), a Bacteroides fragilis inactivated bacteria powder group (group 4), a Bacteroides fragilis lysate solution group (group 5), and a Bacteroides fragilis live bacteria solution group (group 6), with 8 rabbits in each group. The New Zealand white rabbits in groups 2 to 6 were intragastrically inoculated with 1.5×10^4 Cryptosporidium cuniculus oocysts, and the blank group was intragastrically given normal saline. […] The stools were collected to prepare a stool suspension, and structures with oocysts were observed under a microscope, indicating successful modeling. Therefore, treatment could be carried out. The blank group was given normal saline, and the treatment groups were subjected to drug administration. The treatment was carried out twice daily for 7 consecutive days. The New Zealand white rabbits were observed daily for diarrhea condition. On day 1 of the treatment and at the end of the treatment, the stool samples were collected, and the number of oocysts was observed under a microscope.

Row | SMILES | Diarrhea index [1] | Number of oocysts in stools (×10^6 oocysts/rabbit, mean ± SD) ([2]; D 1 of administration, i.g. Bid*7 days, nitazoxanide 10 mg/kg, Bacteroides fragilis 1 × 10^8 cells/mL) | Number of oocysts in stools (×10^6 oocysts/rabbit, mean ± SD) ([2]; D 2 of administration, doses as Table 23) | Number of oocysts in stools (×10^6 oocysts/rabbit, mean ± SD) ([2]; D 3 of administration, doses as Table 23) | Number of oocysts in stools (×10^6 oocysts/rabbit, mean ± SD) ([2]; D 4 of administration, doses as Table 23) | Number of oocysts in stools (×10^6 oocysts/rabbit, mean ± SD) ([2]; D 5 of administration, doses as Table 23) | Number of oocysts in stools (×10^6 oocysts/rabbit, mean ± SD) ([2]; D 6 of administration, doses as Table 23) | Number of oocysts in stools (×10^6 oocysts/rabbit, mean ± SD) ([2]; D 7 of administration, doses as Table 23) | total number of oocysts in the stools of each New Zealand rabbit during the treatment period ([2]; FIG. 5, P<0.0001, doses as Table 23)
1 | COc1ccc2cc3[n+](cc2c1OC)CCc1cc2c(cc1-3)OCO2 [berberine hydrochloride] | 1.25 ± 0.13 |  |  |  |  |  |  |  | 
2 | CC(=O)Oc1ccccc1C(=O)Nc1ncc([N+](=O)[O-])s1 [nitazoxanide] |  | 1.8 ± 0.6 ×10^6 oocysts/rabbit | 3.2 ± 1.5 ×10^6 oocysts/rabbit | 2.8 ± 0.9 ×10^6 oocysts/rabbit | 2.2 ± 0.2 ×10^6 oocysts/rabbit | 1.5 ± 1.1 ×10^6 oocysts/rabbit | 1.3 ± 0.1 ×10^6 oocysts/rabbit | 0.6 ± 0.2 ×10^6 oocysts/rabbit | significantly lower than that in the model group
